Ends that are not written are not given here.
Assays:
Mal = biological target: T1, Mal (Homo sapiens, UniProt P58753); test: His peptide pulldown of overexpressed Flag-Mal from HEK293_T lysates; type: binding; details: 25 μM His-peptide, Ni-agarose beads, 2 hr at 4° C.
T1 construct: expressed in transfected cells; host or cells: HEK293_T, lysed in 1% NP-40 buffer
Method: (§1) HEK293_T cells were seeded in 6 well plate (1.5×10^5 cells/ml) 24 hours before transfection with 1 μg/well Flag-Mal and 2 μg/well Flag-TRAM encoding plasmids. The total amount of plasmid DNA transfected into the cells was made up to […] by adding pcDNA. 24 hours post-transfection cells were lysed in 1% NP-40 lysis buffer containing 20 mM imidazole. The experimental lysates were incubated with 25 μM His-A464 peptide ((H-H-H-H-H-H-[…]) (SEQ ID NO. 66) and 40 μL of Ni-agarose beads for 2 hr at 4° C. Control samples were incubated with either beads only or beads and 25 μM His-A467 peptide (H-H-H-H-H-H-[…]) (SEQ ID NO. 67). After incubation beads were washed 5 times in lysis buffer with imidazole. Proteins were resolved by SDS-PAGE, and transferred membranes immunoblotted for Flag. Data is representative of four experiments; and
(§2) HEK293_T cells were seeded in 6 well plates (1.5×10^5 cells/ml) 24 hours before transfection. 8 μl of GeneJuice was mixed with 32 μl of serum-free DMEM (SFM) per transfection and incubated for 5 min at room temperature before adding 1 μg per transfection of Flag-Mal or 2 μg of Flag-TRAM encoding plasmid DNA. GeneJuice/SFM/DNA mixture was then incubated for 15 min at room temperature before adding to the cells. […] The signal was read using Odyssey Infrared Imaging System, LI-COR® Biosciences.

TRAM = biological target: T2, TRAM (Homo sapiens, UniProt Q86XR7); test: His peptide pulldown of overexpressed Flag-TRAM from HEK293_T lysates; type: binding; details: 25 μM His-peptide, Ni-agarose beads, 2 hr at 4° C.
T2 construct: expressed in transfected cells; host or cells: HEK293_T, lysed in 1% NP-40 buffer
T2 sequence (Q86XR7 whole entry): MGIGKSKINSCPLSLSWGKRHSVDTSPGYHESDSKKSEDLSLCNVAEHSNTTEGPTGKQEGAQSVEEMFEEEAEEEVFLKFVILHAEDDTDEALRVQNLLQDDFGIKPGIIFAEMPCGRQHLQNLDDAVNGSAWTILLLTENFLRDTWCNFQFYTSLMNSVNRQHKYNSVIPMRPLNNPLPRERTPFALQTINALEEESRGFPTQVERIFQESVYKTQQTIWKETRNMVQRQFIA
Method: as §1, §2

[1] = peptide solubility (observation)
TLR4 = type: cell-based, human; details: THP-1; peptide 20 or 40 μM 1 h before 100 ng/ml LPS; 6 h
TLR4, sequence (O00206 24-839): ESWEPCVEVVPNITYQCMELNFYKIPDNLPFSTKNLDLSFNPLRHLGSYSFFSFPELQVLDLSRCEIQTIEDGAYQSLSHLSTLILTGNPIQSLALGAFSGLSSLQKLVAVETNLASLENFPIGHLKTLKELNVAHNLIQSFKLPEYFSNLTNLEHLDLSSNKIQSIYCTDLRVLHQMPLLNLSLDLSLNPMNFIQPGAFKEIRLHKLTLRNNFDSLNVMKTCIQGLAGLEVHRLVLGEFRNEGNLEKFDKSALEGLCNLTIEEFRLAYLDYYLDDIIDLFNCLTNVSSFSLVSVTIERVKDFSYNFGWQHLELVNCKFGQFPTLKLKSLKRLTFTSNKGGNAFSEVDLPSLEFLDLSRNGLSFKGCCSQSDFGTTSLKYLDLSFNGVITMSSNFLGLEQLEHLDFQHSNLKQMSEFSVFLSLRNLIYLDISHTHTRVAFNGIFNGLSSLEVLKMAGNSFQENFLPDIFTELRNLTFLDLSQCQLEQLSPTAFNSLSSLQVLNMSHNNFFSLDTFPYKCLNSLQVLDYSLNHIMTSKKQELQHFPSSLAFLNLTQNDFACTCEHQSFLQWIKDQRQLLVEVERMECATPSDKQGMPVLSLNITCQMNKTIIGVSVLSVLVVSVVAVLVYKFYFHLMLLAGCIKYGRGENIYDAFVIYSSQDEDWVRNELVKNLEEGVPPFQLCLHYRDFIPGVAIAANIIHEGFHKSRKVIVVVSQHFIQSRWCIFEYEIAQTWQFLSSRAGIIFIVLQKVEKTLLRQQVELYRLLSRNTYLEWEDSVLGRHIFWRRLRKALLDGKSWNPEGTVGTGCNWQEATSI
TLR4, sequence (Q9Y6Y9 17-160 partner limits assumed): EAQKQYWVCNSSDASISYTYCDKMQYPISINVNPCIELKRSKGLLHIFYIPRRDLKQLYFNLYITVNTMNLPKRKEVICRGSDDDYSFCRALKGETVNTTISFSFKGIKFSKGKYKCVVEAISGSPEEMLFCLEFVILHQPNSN

[2] = tested on: LPS-induced inflammatory mediators; details: Tsung et al, 2007; cited from earlier work
TLRs = test: TLR responses in human cells; type: cell-based
[3] = tested on: bacterial-induced inflammation; details: murine model; McCoy et al, 2005; cited from earlier work

T1 sequence (P58753 whole entry): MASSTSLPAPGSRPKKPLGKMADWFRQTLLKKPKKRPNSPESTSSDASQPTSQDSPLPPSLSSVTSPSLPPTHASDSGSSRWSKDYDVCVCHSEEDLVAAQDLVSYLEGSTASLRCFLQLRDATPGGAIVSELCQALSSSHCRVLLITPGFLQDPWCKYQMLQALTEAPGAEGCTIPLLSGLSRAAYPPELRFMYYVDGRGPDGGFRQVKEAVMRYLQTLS

Substance: H-H-H-H-H-H-KYSFKLILAEY (HHHHHHKYSFKLILAEY) [His-A464]
- pulldown of overexpressed Mal (Mal): capable of pulling down overexpressed Mal or TRAM
- pulldown of overexpressed TRAM (TRAM): capable of pulling down overexpressed Mal or TRAM

Substance: H-H-H-H-H-H-RNTISGNIYSA [His-A467]
- pulldown of overexpressed Mal (Mal): not
- pulldown of overexpressed TRAM (TRAM): not

Substance: KYSFKLILAAYRRRRRRRRR [Peptide E10A, KYSFKLILAAY-9R]
- solubility of the peptide [1]: insoluble

Substance: P13 (DIVKLTVYDCIRRRRRRRRR) [Peptide P13]
- inhibition of LPS-induced TNFα production (TLR4): even at a high dose of 40 μM, was ineffective at inhibiting TLR4
- reduction of LPS-induced inflammatory mediators in mice [2]: can reduce
- ability to block TLR responses in human cells (TLRs): unable to block TLR responses in human cells
- reduction of in vivo bacterial-induced inflammation [3]: can reduce

From patent US8722052B2, “Vaccinia virus protein A46 peptide and use thereof” (priority 2008, dated 2014)
